Assay results taken from publication PMC5805805 (Investigational New Drugs, 2017).

What was measured:
endometrial cancer = conditions: cited from earlier work
clinical = experiment: clinical
Procedure: (§1) The pharmacokinetic parameters were calculated using PKSolver. All P values were calculated using the R statistical programming language (paired Student’s t-test).

[1] = everolimus; cited from earlier work
[2] = Everolimus pharmacokinetics in whole blood (HPLC-MS/MS), single-agent and combined with metformin; assay type: in vivo, human; conditions: for k el: read-out: λz (converted); for half-life: all 7 patients, mean (SD)
Procedure: as §1

CN(C)C(=N)N=C(N)N [metformin]
rate of disease progression (endometrial cancer; self-reported metformin use with an mTOR inhibitor, vs. 33% without): 12% | response rate to an mTOR inhibitor (endometrial cancer; self-reported metformin use, 94 patients, three trials of various mTOR inhibitors, vs. 7% without): 18% | AUC (clinical; human, in vivo, 500 mg): 8320 ng·h/mL | k el (clinical; human, in vivo, 500 mg): 4.72e-05 s⁻¹ | Cmax (clinical; metformin 500 mg bid, in combination with everolimus (day 15), n = 5, mean (SD)): 1027 (261) μg/l

CO[C@H]1C[C@@H]2CC[C@@H](C)[C@@](O)(O2)C(=O)C(=O)N2CCCC[C@H]2C(=O)O[C@H]([C@H](C)C[C@@H]2CC[C@@H](OCCO)[C@H](OC)C2)CC(=O)[C@H](C)/C=C(\C)[C@@H](O)[C@@H](OC)C(=O)[C@H](C)C[C@H](C)/C=C/C=C/C=C/1C [everolimus]
elimination half-life (t1/2) [1]: 30 h | Cmax ([2]; everolimus 5 mg qd, in combination with metformin 500 mg bid, n = 2): 39.45 ng/mL | Cmax ([2]; everolimus 5 mg qd, single-agent, n = 2): 34.80 ng/mL | AUC ([2]; everolimus 10 mg qd, single-agent, AUC t = 0 to 24 h, n = 5, mean (SD)): 0.713 (0.35) mg/l*h | AUC ([2]; human, whole blood, oral, 5 mg, everolimus 5 mg qd, single-agent, n = 2, read-out: AUC): 282 ng·h/mL | k el ([2]; human, whole blood, oral, 5 mg, everolimus 5 mg qd, single-agent, n = 2): 1.22e-05 s⁻¹ | k el ([2]; human, whole blood, oral, 10 mg, everolimus 10 mg qd, single-agent, n = 5, mean (SD)): 7.78e-06 s⁻¹ | clearance ([2]; human, whole blood, oral, everolimus as single agent): 162 mL/min | clearance ([2]; human, whole blood, oral, everolimus in combination with metformin): 300 mL/min | AUC ([2]; human, whole blood, oral, everolimus 5 mg qd, in combination with metformin, n = 2, read-out: AUC): 254 ng·h/mL | k el ([2]; human, whole blood, oral, everolimus 5 mg qd, in combination with metformin, n = 2): 9.72e-06 s⁻¹ | AUC ([2]; human, whole blood, oral, everolimus 10 mg qd, in combination with metformin, AUC t = 0 to 24 h, n = 5, mean (SD), read-out: AUC): 639 ng·h/mL | k el ([2]; human, whole blood, oral, everolimus 10 mg qd, in combination with metformin, n = 5, mean (SD)): 8.06e-06 s⁻¹ | half-life ([2]; human, whole blood, oral, everolimus in combination with metformin (day 15)): 23.2 h | half-life ([2]; human, whole blood, oral, everolimus single-agent (day 7)): 23.1 h | Cmax ([2]; human, whole blood, oral, everolimus 10 mg qd, single-agent (day 7), n = 5, mean (SD), read-out: Cmax): 73.1 ng/mL
